# From PubChem BioAssay AID2060498 (Molecular Pharmacology Branch, DTP, NCI, 2025)
# System: 171881-019-R-J1-PDC tumor spheroids, viability
# Assay: Anticancer human tumor 171881-019-R-J1-PDC patient-derived invasive breast carcinoma cell line growth inhibition [GQUAD]
# Settings: spheroids with HUVEC and MSC; for IC50: curve of first compound; for viability, T/C: stronger effect = lower value
# In short: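 Multi-cell-type spheroids of tumor cells with HUVEC and mesenchymal stem cells, treated with drug combinations. Concentrations descend in half-log steps from near clinical Cmax, or from 10 microM where Cmax is unknown; viability read-out.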
# [1] = second compound 0.0316 µM, first compound 0.000999 µM
# [2] = second compound 0.0316 µM, first compound 0.00316 µM
# [3] = second compound 0.0316 µM, first compound 0.00999 µM
# [4] = second compound 0.0316 µM, first compound 0.0316 µM
# [5] = second compound 0.0316 µM, first compound 0.0999 µM
# [6] = second compound 0.0316 µM, first compound 0.316 µM
# [7] = second compound 0.1 µM, first compound 0.000999 µM
# [8] = second compound 0.1 µM, first compound 0.00316 µM
# [9] = second compound 0.1 µM, first compound 0.00999 µM
# [10] = second compound 0.1 µM, first compound 0.0316 µM
# [11] = second compound 0.1 µM, first compound 0.0999 µM
# [12] = second compound 0.1 µM, first compound 0.316 µM
# [13] = second compound 0.316 µM, first compound 0.000999 µM
# [14] = second compound 0.316 µM, first compound 0.00316 µM
# [15] = second compound 0.316 µM, first compound 0.00999 µM
# [16] = second compound 0.316 µM, first compound 0.0316 µM
# [17] = second compound 0.316 µM, first compound 0.0999 µM
# [18] = second compound 0.316 µM, first compound 0.316 µM
# [19] = second compound 1 µM, first compound 0.000999 µM
# [20] = second compound 1 µM, first compound 0.00316 µM
# [21] = second compound 1 µM, first compound 0.00999 µM
# [22] = second compound 1 µM, first compound 0.0316 µM
# [23] = second compound 1 µM, first compound 0.0999 µM
# [24] = second compound 1 µM, first compound 0.316 µM
# [25] = second compound 3.16 µM, first compound 0.000999 µM
# [26] = second compound 3.16 µM, first compound 0.00316 µM
# [27] = second compound 3.16 µM, first compound 0.00999 µM
# [28] = second compound 3.16 µM, first compound 0.0316 µM
# [29] = second compound 3.16 µM, first compound 0.0999 µM
# [30] = second compound 3.16 µM, first compound 0.316 µM
# [31] = second compound 10 µM, first compound 0.000999 µM
# [32] = second compound 10 µM, first compound 0.00316 µM
# [33] = second compound 10 µM, first compound 0.00999 µM
# [34] = second compound 10 µM, first compound 0.0316 µM
# [35] = second compound 10 µM, first compound 0.0999 µM
# [36] = second compound 10 µM, first compound 0.316 µM
# 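Further: spheroids exposed to compounds for 7 days.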
# 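Wherever viability, T/C is given: 100% = DMSO vehicle control viability.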
smiles,measurement,setting,value
CC[C@@]1(O)C(=O)OCc2c1cc1n(c2=O)Cc2cc3c(CN(C)C)c(O)ccc3nc2-1 + Cc1cnc(CNC(=O)c2c(=O)c3ccc(N4CCCN(C)CC4)nc3n3c2sc2ccccc23)cn1,IC50,second compound 0.0316 µM,83.8 nM
same,IC50,second compound 0.1 µM,141 nM
same,IC50,second compound 0.316 µM,> 316 nM
same,IC50,second compound 1 µM,> 316 nM
same,IC50,second compound 3.16 µM,> 316 nM
same,IC50,second compound 10 µM,> 316 nM
same,"viability, T/C",[1],96.2%
same,"viability, T/C",[2],93.7%
same,"viability, T/C",[3],89.8%
same,"viability, T/C",[4],72.3%
same,"viability, T/C",[5],45.2%
same,"viability, T/C",[6],40.8%
same,"viability, T/C",[7],89.5%
same,"viability, T/C",[8],78.6%
same,"viability, T/C",[9],76.7%
same,"viability, T/C",[10],64.1%
same,"viability, T/C",[11],50%
same,"viability, T/C",[12],45.8%
same,"viability, T/C",[13],74%
same,"viability, T/C",[14],73.1%
same,"viability, T/C",[15],68.9%
same,"viability, T/C",[16],60.8%
same,"viability, T/C",[17],61.3%
same,"viability, T/C",[18],50.9%
same,"viability, T/C",[19],71.6%
same,"viability, T/C",[20],63.2%
same,"viability, T/C",[21],65.7%
same,"viability, T/C",[22],60.7%
same,"viability, T/C",[23],56.4%
same,"viability, T/C",[24],50.7%
same,"viability, T/C",[25],63.1%
same,"viability, T/C",[26],59.9%
same,"viability, T/C",[27],62.7%
same,"viability, T/C",[28],57%
same,"viability, T/C",[29],58.4%
same,"viability, T/C",[30],50.7%
same,"viability, T/C",[31],58.5%
same,"viability, T/C",[32],54.4%
same,"viability, T/C",[33],54.8%
same,"viability, T/C",[34],59.7%
same,"viability, T/C",[35],60.5%
same,"viability, T/C",[36],48%
COc1cccc2c1C(=O)c1c(O)c3c(c(O)c1C2=O)CC(O)(C(=O)CO)CC3OC1CC(N)C(O)C(C)O1 (stereo unspecified) + Cc1[nH]c2ccc(F)cc2c1-c1nc2c3cccnc3c3ncccc3c2[nH]1,IC50,second compound 0.0316 µM,135 nM
same,IC50,second compound 0.1 µM,148 nM
same,IC50,second compound 0.316 µM,156 nM
same,IC50,second compound 1 µM,117 nM
same,IC50,second compound 3.16 µM,< 31.6 nM
same,IC50,second compound 10 µM,< 31.6 nM
same,"viability, T/C",[4],89.8%
same,"viability, T/C","second compound 0.0316 µM, first compound 0.1 µM",51.9%
same,"viability, T/C",[6],38.1%
same,"viability, T/C","second compound 0.0316 µM, first compound 1 µM",16.4%
same,"viability, T/C","second compound 0.0316 µM, first compound 3.16 µM",0.24%
same,"viability, T/C","second compound 0.0316 µM, first compound 10 µM",0.22%
same,"viability, T/C",[10],85.3%
same,"viability, T/C","second compound 0.1 µM, first compound 0.1 µM",55.3%
same,"viability, T/C",[12],37.9%
same,"viability, T/C","second compound 0.1 µM, first compound 1 µM",16.5%
same,"viability, T/C","second compound 0.1 µM, first compound 3.16 µM",0.15%
same,"viability, T/C","second compound 0.1 µM, first compound 10 µM",0.52%
same,"viability, T/C",[16],82.8%
same,"viability, T/C","second compound 0.316 µM, first compound 0.1 µM",56.4%
same,"viability, T/C",[18],38.7%
same,"viability, T/C","second compound 0.316 µM, first compound 1 µM",13.9%
same,"viability, T/C","second compound 0.316 µM, first compound 3.16 µM",0.13%
same,"viability, T/C","second compound 0.316 µM, first compound 10 µM",0.5%
same,"viability, T/C",[22],76.2%
same,"viability, T/C","second compound 1 µM, first compound 0.1 µM",47%
same,"viability, T/C",[24],40.3%
same,"viability, T/C","second compound 1 µM, first compound 1 µM",14.7%
same,"viability, T/C","second compound 1 µM, first compound 3.16 µM",0.3%
same,"viability, T/C","second compound 1 µM, first compound 10 µM",0.77%
same,"viability, T/C",[28],22.2%
same,"viability, T/C","second compound 3.16 µM, first compound 0.1 µM",17.1%
same,"viability, T/C",[30],18.2%
same,"viability, T/C","second compound 3.16 µM, first compound 1 µM",9.24%
same,"viability, T/C","second compound 3.16 µM, first compound 3.16 µM",0.43%
same,"viability, T/C","second compound 3.16 µM, first compound 10 µM",0.81%
same,"viability, T/C",[34],38%
same,"viability, T/C","second compound 10 µM, first compound 0.1 µM",38.9%
same,"viability, T/C",[36],23.1%
same,"viability, T/C","second compound 10 µM, first compound 1 µM",16.5%
same,"viability, T/C","second compound 10 µM, first compound 3.16 µM",0.93%
same,"viability, T/C","second compound 10 µM, first compound 10 µM",0.93%
Cc1[nH]c2ccccc2c1CCNCc1ccc(/C=C/C(=O)NO)cc1 + CN(C)c1ccc(Nc2c3ccc(NC(=O)CCN4CCCC4)cc3nc3cc(NC(=O)CCN4CCCC4)ccc23)cc1,IC50,second compound 0.0316 µM,55 nM
same,IC50,second compound 0.1 µM,51.4 nM
same,IC50,second compound 0.316 µM,< 0.999 nM
same,IC50,second compound 1 µM,< 0.999 nM
same,IC50,second compound 3.16 µM,< 0.999 nM
same,IC50,second compound 10 µM,< 0.999 nM
same,"viability, T/C",[1],96.9%
same,"viability, T/C",[2],104%
same,"viability, T/C",[3],89.9%
same,"viability, T/C",[4],76.9%
same,"viability, T/C",[5],22%
same,"viability, T/C",[6],0.39%
same,"viability, T/C",[7],95.4%
same,"viability, T/C",[8],75.1%
same,"viability, T/C",[9],84.5%
same,"viability, T/C",[10],71.8%
same,"viability, T/C",[11],20.2%
same,"viability, T/C",[12],0.39%
same,"viability, T/C",[13],46.9%
same,"viability, T/C",[14],45.1%
same,"viability, T/C",[15],48.8%
same,"viability, T/C",[16],28%
same,"viability, T/C",[17],10.8%
same,"viability, T/C",[18],0.26%
same,"viability, T/C",[19],4.23%
same,"viability, T/C",[20],3.43%
same,"viability, T/C",[21],4.51%
same,"viability, T/C",[22],1.92%
same,"viability, T/C",[23],0.8%
same,"viability, T/C",[24],0.38%
same,"viability, T/C",[25],0.41%
same,"viability, T/C",[26],0.27%
same,"viability, T/C",[27],0.37%
same,"viability, T/C",[28],0.25%
same,"viability, T/C",[29],0.14%
same,"viability, T/C",[30],0.13%
same,"viability, T/C",[31],0.18%
same,"viability, T/C",[32],0.19%
same,"viability, T/C",[33],0.16%
same,"viability, T/C",[34],0.44%
same,"viability, T/C",[35],0.27%
same,"viability, T/C",[36],0.17%
